Like-named read-outs stand apart in the source and are kept apart here.
Columns and labels:
[1] = system: Bacillus atrophaeus spores; test: Filtering test: spores incubated in test solution, filtered, filter half treated with ozone, colonies counted; format: cell-based; settings: test solution followed by ~350 ppm ozone, 5 or 10 min
From the text: Bacterial spores: Stainless steel discs with Bacillus atrophaeus spores (log 6, cat #1-6100ST, Raven Biological Laboratories).
An ozone generator provided ˜350 ppm O3, and a flow rate of ˜25 l/min, using setting No. 1.
Commercially available sterile single filters (pore size 0.45 μm) and an analytical test filter funnel from Nalgene was used (F-2161, Sigma-Aldrich). For suction, a Rietschle Thomas DTF 6 vacuum pump was used, with a flow rate of ˜6 m3/h, providing a vacuum of ˜150 mbar abs.
Filtering test: In filtering test experiments the spore solutions were prepared in a volume of 1 ml and processed. Thereto, after an incubation period of 5 min in the appropriate buffer at 40° C. using a rotary shaker, an aliquot of 250 μl of the suspension was transferred onto a sterile single use filters. The filter was washed two times with 10 ml of sterile water. The filter was retrieved under sterile conditions, and the filter was cut into halves using a sterile scissor. Only one half of the filter was treated with ozone, while the other half was kept as control, i.e. without ozone treatment. Finally, both halves were placed onto a TSA plate and incubated at 30° C. Initially Nutrient Agar plates were used, but later on a switch was made to TSA plates, in order to utilize the more pronounced reddish colour of Bacillus atrophaeus colonies which was facilitating analysis and documentation. […]

[2] = cited from earlier work

## O=[O+][O-] [ozone]
[1]
  sterilizing/disinfecting/killing effect (in words): increased after 10 min compared to 5 min
[2]; 20 ° C.
  half-life of ozone in gas: approximately 3 days
[2]; 250° C.
  half-life of ozone in gas: 1.5 s

— patent US20090274577A1, “STE[…] TREATMENT WITH REDUCTANT AND OXIDANT” (priority 2008, published 2009)
